Results as given in patent US6448260B2, “Endothelin receptor antagonists” (SmithKline Beecham Corporation, priority 1991, dated 2002).
Where a name gives a salt, the structure may show the parent alone.

Compound | melting point
CCCCOc1ccc2c(c1)[C@H](C1(OC)C=CC=CC1)[C@@H](C(=O)O)[C@@H]2c1ccc2c(c1)OCO2 (mixture of isomers) [Example 107, (1RS, 2SR, 3RS)-5-(But-1-yloxy)-3-(1-methoxyphenyl)-1-(3,4-methylenedioxyphenyl)indane-2-carboxylic acid] | 157 to 158 °C
C=CCCOc1ccc2c(c1)[C@@H](c1ccc(OC)cc1)[C@H](C(=O)O)[C@@H]2c1ccc2c(c1)OCO2 (racemic) [Example 106, (1RS, 2SR, 3RS)-5-(3-Buten-1-yloxy)-3-(4-methoxyphenyl)-1-(3,4-methylenedioxyphenyl)indane-2-carboxylic acid] | 127 to 129 °C
O=C(O)[C@H]1[C@H](c2ccc(O)cc2)c2ccccc2[C@@H]1c1ccc2c(c1)OCO2 (racemic) [Example 25, (1RS, 2SR, 3SR)-1-(4-Hydroxyphenyl)-3-(3,4-methylenedioxyphenyl)indane-2-carboxylic acid] | 94 to 96 °C
CCCOc1ccc2c(c1)[C@H](c1ccc(OC)cc1OC(C)C)[C@@H](C(=O)O)[C@@H]2c1ccc2c(c1)OCO2 (racemic) [Example 42, (1RS, 2SR, 3RS)-3-[4-Methoxy-2-(prop-2-yloxy)phenyl]-1-(3,4-methylenedioxyphenyl)-5-(prop-1-yloxy)indane-2-carboxylic acid] | 75 to 79 °C
CCCOc1ccc2c(c1)[C@H](c1ccccc1O)[C@@H](C(=O)O)[C@@H]2c1ccc2c(c1)OCO2 (racemic) [Example 36, (1RS, 2SR, 3RS)-3-(2-Hydroxyphenyl)-1-(3,4-methylenedioxyphenyl)-5-(prop-1-yloxy)indane-2-carboxylic acid] | 97 to 98 °C
COc1cccc([C@@H]2c3ccccc3[C@H](c3ccc4c(c3)OCO4)[C@H]2C(=O)O)c1 (racemic) [Example 5, (1RS, 2SR, 3SR)-1-(3-Methoxyphenyl)-3-(3,4-methylenedioxyphenyl)indane-2-carboxylic acid] | 131 to 133 °C
COc1ccc([C@@H]2c3ccccc3[C@H](c3cc(OC)c(OC)c(OC)c3)[C@H]2C(=O)O)cc1 (racemic) [Example 72, (1RS, 2SR, 3S R)-1-(4-Methoxyphenyl)-3-(3,4,5-trimethoxyphenyl)indane-2-carboxylic acid] | 197 to 198 °C
C=CCc1cc(OC)ccc1[C@H]1c2cc(OCCC)ccc2[C@@H](c2ccc3c(c2)OCO3)[C@@H]1C(=O)O (racemic) [Example 60, (1RS, 2SR, 3SR)-3-[4-Methoxy-2-(prop-2-en-1-yl)phenyl]-1-(3,4-methylenedioxyphenyl)-5-(prop-1-yloxy)indane-2-carboxylic acid] | 126 to 127 °C
CCCOc1ccc2c(c1)[C@H](c1ccc(OC)cc1Oc1ncccc1C(=O)O)[C@@H](C(=O)O)[C@@H]2c1ccc2c(c1)OCO2 (racemic) [Example 98, (1RS, 2SR, 3RS)-3-[2-[(3-Carboxypyridin-2-yl)oxy]-4-methoxyphenyl]-1-(3,4-methylenedioxyphenyl)-5-(prop-1-yloxy) indane-2-carboxylic acid] | 152 to 155 °C
CCCOc1ccc2c(c1)[C@H](c1ccc(OC)cc1-c1ccccc1)[C@@H](C(=O)O)[C@@H]2c1ccc2c(c1)OCO2 (racemic) [Example 56, (1RS, 2SR, 3RS)-3-(4-Methoxy-2-phenylphenyl)-1-(3,4-methylenedioxyphenyl)-5-(prop-1-yloxy)indane-2-carboxylic acid] | 199 to 200 °C
O=C(O)[C@H]1[C@H](c2ccc3c(c2)OCO3)c2ccc(O)cc2[C@@H]1c1ccc(OC(F)(F)F)cc1 (racemic) [Example 108, (1RS, 2RS, 3SR)-5-Hydroxy-1-(3,4-methylenedioxyphenyl)-3-(4-trifluoromethoxyphenyl)indane-2-carboxylic acid] | 100 to 104 °C
COc1ccc([C@@H]2c3ccc(O)cc3[C@H](c3ccc4c(c3)OCO4)[C@H]2C(=O)O)cc1 (racemic) [Example 81, (1RS, 2SR, 3SR)-5-Hydroxy-3-(3,4-methylenedioxyphenyl)-1-(4-methoxyphenyl)indane-2-carboxylic acid] | 124 to 127 °C
C=CCOc1cc(OC)ccc1[C@H]1c2cc(OCCC)ccc2[C@@H](c2ccc3c(c2)OCO3)[C@@H]1C(=O)O (racemic) [Example 100, (1RS, 2SR, 3RS)-1-(3,4-Methylenedioxyphenyl)-3-[4methoxy-2-(2-propen-1-yloxy)phenyl]-5-(prop-1-yloxy)indane-2-carboxylic acid] | 168 to 170 °C
CCCOc1ccc2c(c1)[C@H](c1ccc(OC)cc1OCC(=O)[O-])[C@@H](C(=O)O[C@@H](C)OC(=O)C(C)(C)OC)[C@@H]2c1ccc2c(c1)OCO2.[Na+] (racemic) | 178 to 181 °C (dec.)
CCCCc1ccc2c(c1)[C@H](c1ccc(OC)cc1OCC(=O)O)[C@@H](C(=O)O)[C@@H]2c1ccc2c(c1)OCO2 (racemic) [Example 89, (1RS, 2SR, 3RS)-5-Butyl-3-(2-carboxymethoxy-4-methoxyphenyl)-1-(3,4-methylenedioxyphenyl) indane-2-carboxylic acid] | 176 to 177 °C
O=C(O)[C@H]1[C@H](c2ccc(F)cc2)c2ccccc2[C@@H]1c1ccc2c(c1)OCO2 (racemic) [Example 4, (1RS, 2SR, 3SR)-1-(4-Fluorophenyl)-3-(3,4-methylenedioxyphenyl)indane-2-carboxylic acid] | 146 to 149 °C

Compound | melting point
O=C(O)[C@H]1[C@H](c2ccc3c(c2)OCO3)c2ccc(OCc3ccccc3)cc2[C@@H]1c1ccc2c(c1)OCO2 (racemic) [Example 116, (1RS, 2SR, 3SR)-5-Benzyloxy-1,3-bis(3,4-methylenedioxyphenyl)indane-2 carboxylic acid] | 191 to 193 °C
COc1ccc([C@@H]2c3cc(O)ccc3[C@H](c3cc4c(cc3OC)OCO4)[C@H]2C(=O)O)cc1 (racemic) [Example 82, (1RS, 2SR, 3RS)-5-Hydroxy-3-(4-methoxyphenyl)-1-(2-methoxy-4,5-methylenedioxyphenyl)indane-2-carboxylic acid] | 236 to 239 °C
COc1ccc([C@@H]2c3cc(O)ccc3[C@H](c3c[nH]c4ccccc34)[C@H]2C(=O)O)cc1 (racemic) [Example 109, (1RS, 2SR, 3RS)-5-Hydroxy-1-(3-indolyl)-3-(4-methoxyphenyl)indane-2-carboxylic acid] | 138 to 140 °C
O=C(O)C1[C@H](c2ccc3c(c2)OCO3)c2ccccc2[C@H]1c1ccc2c(c1)OCO2 (racemic) [Example 6, (1RS, 3RS)-1,3-Di-(3,4-methylenedioxyphenyl)-indane-2-carboxylic acid] | 182 to 185 °C
O=C(O)C1[C@H](c2ccccc2)c2ccccc2[C@H]1c1ccccc1 (racemic) (as salt: sodium) [Example 21, (1RS, 3RS)-1,3-Diphenylindane-2-carboxylic acid] | 220 to 222 °C (dec.)
CCCOc1ccc2c(c1)[C@H](c1ccc(OC)cc1OCOC)[C@@H](C(=O)O)[C@@H]2c1ccc2c(c1)OCO2 (racemic) [Example 31, (1RS, 2SR, 3RS)-3-(4-methoxy-2-methoxymethoxyphenyl)1-(3,4-methylenedioxyphenyl)-5-(prop-1-yloxy)indane-2-carboxylic acid] | 161 to 163 °C
COc1ccc([C@H]2c3ccccc3[C@@H](c3ccc(NC(C)=O)cc3)[C@H]2C(=O)O)cc1 (racemic) [Example 23, (1RS, 2RS, 3SR)-1-(4-Acetamidophenyl)-3-(4-methoxyphenyl)indane-2-carboxylic acid] | 231 to 232 °C
COc1ccc([C@H]2c3cc(O)ccc3[C@@H](c3ccc4c(c3)OCO4)[C@@H]2C(=O)O)c(OC)c1 (racemic) [Example 76, (1RS, 2SR, 3RS)-3-(2,4-Dimethoxyphenyl)-5-hydroxy-1-(3,4-methylenedioxyphenyl)indane-2-carboxylic acid] | 110 to 113 °C
COc1ccc([C@@H]2c3ccccc3[C@H](c3ccccc3)[C@H]2C(=O)O)cc1 (racemic) [Example 1, (1RS,2RS,3SR)-1-(4-Methoxyphenyl)-3-phenylindane-2-carboxylic acid] | 164 to 166 °C
COc1ccc(C2C(C(=O)O)=C(c3ccccc3)c3ccccc32)cc1 (racemic) [Example 15, (1RS)-1-(4-Methoxyphenyl)-3-phenylindene-2-carboxylic acid] | 191 to 193 °C
CCCOc1cccc2c1[C@@H](c1ccc3c(c1)OCO3)[C@@H](C(=O)O)[C@H]2c1ccc(OC)cc1OCC(=O)O (racemic) [Example 91, (1RS, 2RS, 3RS)-1-(2-Carboxymethoxy-4-methoxyphenyl]-3-(3,4-methylenedioxyphenyl)-4-(prop-1-yloxy)indane-2-carboxylic acid] | 201 to 206 °C
COc1ccc([C@H]2c3cc(OC)ccc3[C@@H](c3ccc4c(c3)OCO4)[C@H]2C(=O)O)cc1 (racemic) [Example 28, (1RS, 2SR, 3SR)-5-Methoxy-3-(4-methoxyphenyl)-1-(3,4-methylenedioxyphenyl)indane-2-carboxylic acid] | 129 to 131 °C
CCCOc1ccc2c(c1)[C@H](c1ccc(OC)cc1CCC)[C@@H](C(=O)O)[C@@H]2c1ccc2c(c1)OCO2 (racemic) [Example 61, (1RS, 2SR, 3SR)-3-[4-Methoxy-2-(prop-1-yl)phenyl]-1-(3,4-methylenedioxyphenyl)-5-(prop-1-yloxy)indane-2-carboxylic acid] | 155 to 156 °C
CCCOc1ccc2c(c1)[C@H](c1ccc(OC)cc1OCC(=O)O)[C@@H](CNS(=O)(=O)C(F)(F)F)[C@@H]2c1ccc2c(c1)OCO2 (racemic) [Example 140, (1RS, 2SR, 3RS)-2-Trifluoromethylsulfonamidomethyl-3-(2-carboxymethoxy-4-methoxyphenyl)-1-(3,4-methylenedioxyphenyl)-5-(prop-1-yloxy)indane] | 184 to 186 °C
CCc1ccc([C@@H]2c3ccccc3[C@H](c3ccccc3)[C@H]2C(=O)O)cc1 (racemic) [Example 20, (1RS, 2RS, 3SR)-1-(4-Ethylphenyl)-3-phenylindane-2-carboxylic acid] | 163 to 164 °C
